Results reported in patent US6392082B1, “Triazole derivatives having antifungal activity” (Sankyo Company, Limited, priority 1999, dated 2002).
Converted amounts (≈) assume the structure as drawn. Like-named read-outs stand apart in the source and are kept apart here.

How the values were obtained:
[1] = test system: Cryptococcus neoformans TIMM 0362; experiment: In vitro antifungal activity, MIC by broth microdilution (Cryptococcus neoformans); assay type: cell-based; settings: TIMM0362, lowest concentration causing at least 50% growth inhibition (absorbance 485 nm), yeast nitrogen base pH 7.0, 35° C., 48-72 hours, read-out: MIC value C.n.
Method: (§1) The antifungal activities of test compounds were assessed according to their minimum inhibitory concentrations (MICs) which were measured by the methods described below.
1(ii) Measurement Method for Cryptococcus neoformans
A modified version of the Broth Dilution Antifuinal Susceptibility Testing of Yeast; Approved Standard M27-A (Vol. 17, No. 9, June 1997, NCCLS) was used, MICs being determined by the broth microdilution method. Each test compound was dissolved in DMSO. Serial two-fold dilutions of each compound were prepared with DMSO and final dilutions were prepared with yeast nitrogen base medium (product of Difco Laboratories) buffered to pH 7.0 with 0.165 M MOPS. […] Colonies of the test fungi were suspended in physiological saline followed by adjustment to 5.0×10^3 to 2.5×10^4 cells/ml with yeast nitrogen base medium buffered to pH 7.0 with 0.165 M MOPS. 100 μl of the fungal suspension were added to each of the wells of microtitre plates and then 100 μl of each diluted test compound were added to one of said wells and mixed with the fungal suspension therein, before incubating at 35° C. for 48-72 hours. […] The MICs were defined as the lowest compound concentrations causing at least 50% growth inhibition when compared with the control as measured by light absorbance at 485 nm.
e) C.n.: Cryptococcus neoformans TIMM 0362.

[2] = test system: Aspergillus fumigatus SANK 10569; experiment: In vitro antifungal activity, MIC by broth microdilution (Aspergillus species); assay type: cell-based; settings: SANK10569, lowest concentration causing at least 80% growth inhibition, RPMI1640 pH 7.0, 30° C., 24-72 hours, read-out: MIC value A.f.
Method: The antifungal activities of test compounds were assessed according to their minimum inhibitory concentrations (MICs) which were measured by the methods described below. 1(iii) Measurement Method for Aspergillus Species A modified version of the protocol in Antimicrob. Agents Chemother., 39, 314 (1995) was used, MICs being determined by the broth microdilution method. Test compounds were dissolved in dimethyl sulfoxide (DMSO). Serial two-fold dilutions of each compound were prepared with DMSO and then final dilutions were prepared with RPMI1640 medium (product of Dainippon Pharmaceutical Co., Ltd.) buffered to pH 7.0 with 0.165 M MOPS.

[3] = Acid stability test (half-life in 0.01 N HCl); assay type: physicochemical; settings: 0.01 N HCl (pH 2.0), initial 50 μg/ml, 37° C., HPLC, read-out: t1/2, stability in acidic solution
Method: A small amount of the solution was taken from the reaction solution at predetermined time intervals and the reaction was stopped in these samples by neutralizing with an aqueous sodium hydroxide solution. Quantitative determination of the residual rate of the test compound in the solution was determined by HPLC.
The half-life (t½) of the test compound in 0.01 N HCl was determined according to the following equation using the degradation rate constant kdeg which was determined by semi-logarithmic regression analysis of the residual rate in the solution.

[4] = test system: Canadida albicans TIMM 3165; experiment: In vitro antifungal activity, MIC by broth microdilution (Candida species); assay type: cell-based; settings: TIMM3165, lowest concentration causing at least 80% growth inhibition, RPMI1640 pH 7.0, 35° C., 24-72 hours, read-out: MIC value C.a. (3)
Method: as §1
(§2) 1(i) Measurement Method for Candida Species
(§3) A modified version of the procedure described in Japanese Journal of Medical Mycology, 36, 62 (1995) was used, MICs being determined by the broth microdilution method. Each test compound was dissolved in dimethyl sulfoxide (DMSO). Serial two-fold dilutions of each compound were prepared with DMSO and then final dilutions were prepared with RPMI1640 medium (product of Dainippon Pharmaceutical Co., Ltd.) which was buffered to pH 7.0 with 0.165 M 3-(morpholino)propanesulfonic acid (MOPS). […] Colonies of the test fungi were suspended in physiological saline followed by adjustment to 5.0×10^2 to 2.5×10^3 cells/ml with RPM11640 medium which was buffered to pH 7.0 with 0.165 M MOPS. 100 μl of the fungal suspension were added to each of the wells of microtitre plates and then 100 μl of each diluted test compound were added to one of said wells and mixed with the fungal suspension therein, before incubating at 35° C. for 24-72 hours. […] The MICs were defined as the lowest compound concentrations causing at least 80% growth inhibition when compared with the control.
d) C.a. (3): Canadida albicans TIMM 3165.

[5] = Oral absorption rate (bioavailability) in SD rats; assay type: in vivo; settings: rat, blood; fasted SD rats; oral 20 mg/kg vs intravenous 2 mg/kg in PEG 400; AUCpo(0-48 h)/AUCiv(0-∞), dose-corrected; read-out: BA (bioavailability)
Method: A test compound in polyethylene glycol 400 (PEG 400) was administered either orally (4 animals) or intravenously into the caudal vein (3 animals) of SD rats (age 7 weeks) which had fasted overnight. The oral dose of the test compound was 20 mg per kg of rat body weight. The intravenous dose of the test compound injected into the caudal vein was 2 mg per kg of rat body weight. The amount of PEG 400 used was 1 ml per kg of rat body weight for both oral and intravenous administration. The bioavailability (BA) values were calculated according to the following equation using the integrated values of the blood concentration of the test compound up to 48 hours after oral administration [AUCpo(0-48 h)], and the integrated values of the blood concentration extrapolated from 0 to infinite time after intravenous administration into the caudal vein [AUCiv(0-∞)].
BA(%)={[(AUCpo(0-48))/(dosepo)]/[(AUCiv(0-∞))/(doseiv)]}×100
The larger the value of BA, the higher the oral absorption rate. The results for the compound of formula (Ib) of the present invention and those for Comparative Compounds A, B and C are shove in Table 3.

[6] = test system: Canadida albicans ATCC 64550; experiment: In vitro antifungal activity, MIC by broth microdilution (Candida species); assay type: cell-based; settings: ATCC64550, lowest concentration causing at least 80% growth inhibition, RPMI1640 pH 7.0, 35° C., 24-72 hours, read-out: MIC value C.a. (1)
Method: as §1, §2, §3
b) C.a. (1): Canadida albicans ATCC 64550.

[7] = test system: Canadida albicans TIMM 3164; experiment: as above; assay type: cell-based; settings: TIMM3164, lowest concentration causing at least 80% growth inhibition, RPMI1640 pH 7.0, 35° C., 24-72 hours, read-out: MIC value C.a. (2)
Method: as §1, §2, §3
c) C.a. (2): Canadida albicans TIMM 3164.

[8] = 0.01 N hydrochloric acid with 30% acetonitrile

## C[C@@H](S[C@H]1CO[C@H](/C=C/C=C/c2ccc(C#N)cc2)OC1)[C@](O)(Cn1cncn1)c1ccc(F)cc1F [Comparative Compound (A), (2R,3R)-3-[[trans-2-[(1E,3E)-4-(4-Cyanophenyl)-1,3-butadien-1-yl]-1,3-dioxan-5-yl]thio]-2-(2,4-difluorophenyl)-1-(1H-1,2,4-triazol-1yl)-2-butanol]
[1]
  MIC: 0.016 mg/L (≈ 0.0305 µM)
[2]
  MIC: 0.031 mg/L (≈ 0.0591 µM)
[3]; [8]
  half-life at 50 μg/ml: 3.12 min
[4]
  MIC: 0.125 to 0.25 mg/L (≈ 0.238 to 0.477 µM)
[5]
  bioavailability: 50.7%
[6]
  MIC: 0.5 to 1 mg/L (≈ 0.953 to 1.91 µM)
[7]
  MIC: 0.016 mg/L (≈ 0.0305 µM)

## C[C@@H](S[C@H]1CO[C@H](/C=C/C=C/c2ccc(F)cc2F)OC1)[C@](O)(Cn1cncn1)c1ccc(F)cc1F [Comparative Compound (B)]
[1]
  MIC: ≤ 0.008 mg/L
[2]
  MIC: 0.125 mg/L (≈ 0.233 µM)
[3]; [8]
  half-life at 50 μg/ml: 1.54 min
[4]
  MIC: 0.125 to 0.25 mg/L (≈ 0.233 to 0.467 µM)
[5]
  bioavailability: 6.24%
[6]
  MIC: 0.5 mg/L (≈ 0.934 µM)
[7]
  MIC: 0.031 to 0.063 mg/L (≈ 0.0579 to 0.118 µM)

## CC(C[C@H]1CO[C@H](/C=C/C=C/c2ccc(C#N)cc2F)OC1)C(O)(Cn1cncn1)c1ccc(F)cc1F (some centres unmarked) [Comparative Compound (C)]
[3]; [8]
  half-life at 50 μg/ml: 2.42 min
[5]
  bioavailability: 57.8%

## C[C@@H](S[C@H]1CO[C@H](/C=C/C=C/c2ccc(C#N)cc2F)OC1)[C@](O)(Cn1cncn1)c1ccc(F)cc1F [Compound (Ib), (2R,3R)-3-[[trans-2-[(1E,3E)-4-(4-Cyano-2-fluorophenyl)-1,3-butadien-1-yl]-1,3-dioxan-5-yl]thio]-2-(2,4-difluorophenyl)-1-(1H-1,2,4-triazol-1-yl)-2-butanol]
[1]
  MIC: ≤ 0.008 mg/L
[2]
  MIC: 0.031 mg/L (≈ 0.0571 µM)
[3]; buffer, 30% acetonitrile
  half-life at 50 μg/ml: 6.4 min
[4]
  MIC: 0.063 mg/L (≈ 0.116 µM)
[5]
  bioavailability: 123%
[6]
  MIC: 0.25 mg/L (≈ 0.461 µM)
[7]
  MIC: ≤ 0.008 mg/L
